Patent US9567302B2, “Carbamate compounds and of making and using same” (Abide Therapeutics, Inc., priority 2012, dated 2017)

Legend:
Format in all cases: biochemical
MAGL [1] = target: T1, MAGL (Mus musculus, UniProt O35678); experiment: In vitro competitive ABPP, % inhibition at fixed concentration, MAGL; set-up: from tissue
T1 sequence (O35678 1-303): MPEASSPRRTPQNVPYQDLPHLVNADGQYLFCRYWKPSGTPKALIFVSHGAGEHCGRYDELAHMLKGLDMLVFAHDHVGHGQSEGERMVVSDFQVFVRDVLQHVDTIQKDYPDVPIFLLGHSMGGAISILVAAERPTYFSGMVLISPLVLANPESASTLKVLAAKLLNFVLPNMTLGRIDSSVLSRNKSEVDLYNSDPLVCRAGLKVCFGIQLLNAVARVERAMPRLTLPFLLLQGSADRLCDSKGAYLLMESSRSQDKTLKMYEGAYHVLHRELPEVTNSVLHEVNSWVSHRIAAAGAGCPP
Description: (§1) In Vitro Competitive Activity-Based Protein Profiling.
(§2) Proteomes (mouse brain membrane fraction or cell lysates) (50 μL, 1.0 mg/ml total protein concentration) were preincubated with varying concentrations of inhibitors at 37° C. After 30 min, FP-Rh (1.0 μL, 50 μM in DMSO) was added and the mixture was incubated for another 30 min at 37° C. Reactions were quenched with SDS loading buffer (50 μL—4×) and run on SDS-PAGE. Following gel imaging, serine hydrolase activity was determined by measuring fluorescent intensity of gel bands corresponding to MAGL, ABHD6 and FAAH using ImageJ 1.43u software.

FAAH [2] = target: T2, FAAH (Mus musculus, UniProt O08914); experiment: In vitro competitive ABPP, % inhibition at fixed concentration, FAAH; set-up: from tissue
T2 sequence (O08914 1-579): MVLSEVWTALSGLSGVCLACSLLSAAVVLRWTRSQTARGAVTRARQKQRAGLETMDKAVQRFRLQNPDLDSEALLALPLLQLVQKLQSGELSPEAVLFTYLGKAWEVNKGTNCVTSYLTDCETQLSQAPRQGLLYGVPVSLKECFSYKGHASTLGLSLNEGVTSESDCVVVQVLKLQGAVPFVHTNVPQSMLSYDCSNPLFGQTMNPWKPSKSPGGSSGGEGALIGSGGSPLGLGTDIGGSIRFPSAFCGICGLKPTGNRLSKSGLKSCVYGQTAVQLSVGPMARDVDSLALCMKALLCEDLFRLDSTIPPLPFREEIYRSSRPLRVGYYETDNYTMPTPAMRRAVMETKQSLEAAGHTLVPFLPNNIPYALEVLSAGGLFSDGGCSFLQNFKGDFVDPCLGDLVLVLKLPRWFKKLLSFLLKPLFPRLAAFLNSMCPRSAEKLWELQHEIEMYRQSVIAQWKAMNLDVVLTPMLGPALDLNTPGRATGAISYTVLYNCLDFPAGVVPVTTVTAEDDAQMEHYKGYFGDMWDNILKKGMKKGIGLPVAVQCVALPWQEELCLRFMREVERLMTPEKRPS
Description: as §1, §2

ABHD6 [3] = target: T3, ABHD6 (Mus musculus, UniProt Q8R2Y0); experiment: In vitro competitive ABPP, % inhibition at fixed concentration, ABHD6; set-up: from tissue
T3 sequence (Q8R2Y0 1-336): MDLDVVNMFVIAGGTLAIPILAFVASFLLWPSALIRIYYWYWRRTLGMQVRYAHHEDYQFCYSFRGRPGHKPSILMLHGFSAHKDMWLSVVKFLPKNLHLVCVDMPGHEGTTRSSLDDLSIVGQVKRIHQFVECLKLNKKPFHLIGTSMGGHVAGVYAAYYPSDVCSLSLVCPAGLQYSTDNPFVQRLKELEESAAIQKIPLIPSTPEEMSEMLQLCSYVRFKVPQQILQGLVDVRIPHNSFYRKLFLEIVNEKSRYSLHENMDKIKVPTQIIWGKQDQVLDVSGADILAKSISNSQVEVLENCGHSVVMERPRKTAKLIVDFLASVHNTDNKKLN
Description: as §1, §2

MAGL [4] = target: T1, MAGL; experiment: In vitro competitive activity-based protein profiling (FP-Rh), mouse MAGL; set-up: from tissue; host or cells: mouse brain membrane fraction; conditions: Table 2, mouse proteome, 30 min preincubation at 37° C.
Description: as §1
(§3) Proteomes (mouse brain membrane fraction or cell lysates) (50 μL, 1.0 mg/ml total protein concentration) were preincubated with varying concentrations of inhibitors at 37° C. After 30 min, FP-Rh (1.0 μL, 50 μM in DMSO) was added and the mixture was incubated for another 30 min at 37° C. Reactions were quenched with SDS loading buffer (50 μL—4×) and run on SDS-PAGE.

FAAH [5] = target: T2, FAAH; experiment: In vitro competitive activity-based protein profiling (FP-Rh), mouse FAAH; set-up: from tissue; host or cells: mouse brain membrane fraction; conditions: Table 2, mouse proteome, 30 min preincubation at 37° C.
Description: as §1, §3

ABHD6 [6] = target: T3, ABHD6; experiment: In vitro competitive activity-based protein profiling (FP-Rh), mouse ABHD6; set-up: from tissue; host or cells: mouse brain membrane fraction; conditions: Table 2, mouse proteome, 30 min preincubation at 37° C.
Description: as §1, §3

SMILES | inhibition at 1 µM (MAGL [1]) [%] | inhibition at 1 µM (FAAH [2]) [%] | inhibition at 1 µM (ABHD6 [3]) [%] | IC50 (MAGL [4]) [nM] | IC50 (FAAH [5]) [nM] | IC50 (ABHD6 [6]) [nM] | further results
CC(=O)N1CCN(C(=O)ON2C(=O)CCC2=O)CC1 [Example 51, 2,5-Dioxopyrrolidin-1-yl 4-acetylpiperazine-1-carboxylate] | – | – | – | – | – | – | inhibition at 10 µM (MAGL [1]): < 25%; inhibition at 10 µM (FAAH [2]): < 25%; inhibition at 10 µM (ABHD6 [3]): < 25%
O=C(ON1C(=O)CCC1=O)N1CCN(Cc2ccc(N3CCOCC3)cc2C(F)(F)F)CC1 [Example 76, 2,5-Dioxopyrrolidin-1-yl 4-{[4-(morpholin-4-yl)-2-(trifluoromethyl)phenyl]methyl}piperazine-1-carboxylate] | 25 to 75 | < 25 | 25 to 75 | – | – | – | –
C[C@H]1CN(Cc2ccc(N3CCOCC3)cc2C(F)(F)F)CCN1C(=O)ON1C(=O)CCC1=O [Example 77, 2,5-Dioxopyrrolidin-1-yl (2S)-2-methyl-4-{[4-(morpholin-4-yl)-2-(trifluoromethyl)phenyl]methyl}piperazine-1-carboxylate] | 25 to 75 | < 25 | 25 to 75 | – | – | – | –
C[C@@H]1CN(Cc2ccc(N3CCOCC3)cc2F)CCN1C(=O)ON1C(=O)CCC1=O [Example 79, 2,5-Dioxopyrrolidin-1-yl (2R)-4-{[2-fluoro-4-(morpholin-4-yl)phenyl]methyl}-2-methylpiperazine-1-carboxylate] | < 25 | < 25 | < 25 | – | – | – | –
C[C@@H]1CN(Cc2ccc(N3CCOCC3)cc2C(F)(F)F)CCN1C(=O)ON1C(=O)CCC1=O [Example 80, 2,5-Dioxopyrrolidin-1-yl (2R)-2-methyl-4-{[4-(morpholin-4-yl)-2-(trifluoromethyl)phenyl]methyl}piperazine-1-carboxylate] | < 25 | < 25 | < 25 | – | – | – | –
O=C(ON1C(=O)CCC1=O)N1CCN(Cc2c(Cl)cccc2N2CCOCC2)CC1 [Example 81, 2,5-Dioxopyrrolidin-1-yl 4-{[2-chloro-6-(morpholin-4-yl)phenyl]methyl}piperazine-1-carboxylate] | < 25 | < 25 | 25 to 75 | – | – | – | –
CC1(C)CN(Cc2ccc(N3CCOCC3)cc2C(F)(F)F)CCN1C(=O)ON1C(=O)CCC1=O [Example 86, 2,5-Dioxopyrrolidin-1-yl 2,2-dimethyl-4-{[4-(morpholin-4-yl)-2-(trifluoromethyl)phenyl]methyl}piperazine-1-carboxylate] | < 25 | < 25 | < 25 | – | – | – | –
CC1(C)CN(Cc2ccc(N3CCOCC3)cc2OC(F)(F)F)CCN1C(=O)ON1C(=O)CCC1=O [Example 87, 2,5-Dioxopyrrolidin-1-yl 2,2-dimethyl-4-{[4-(morpholin-4-yl)-2-(trifluoromethoxy)phenyl]methyl}piperazine-1-carboxylate] | < 25 | < 25 | < 25 | – | – | – | –
O=C1COc2ccc(CN3CCN(C(=O)ON4C(=O)CCC4=O)CC3)cc2N1 [Example 134, 2,5-Dioxopyrrolidin-1-yl 4-((3-oxo-3,4-dihydro-2H-benzo[b][1,4]oxazin-6-yl)methyl)piperazine-1-carboxylate] | – | – | – | 1000 to 10000 | > 10000 | 1000 to 10000 | –
Cc1nn(-c2ccccc2)cc1CN1CCN(C(=O)ON2C(=O)CCC2=O)CC1 [Example 138, 2,5-Dioxopyrrolidin-1-yl 4-((3-methyl-1-phenyl-1H-pyrazol-4-yl)methyl)piperazine-1-carboxylate] | – | – | – | 1000 to 10000 | 1000 to 10000 | 100 to 1000 | –
Cn1nc(-c2ccccc2)cc1CN1CCN(C(=O)ON2C(=O)CCC2=O)CC1 [Example 139, 2,5-dioxopyrrolidin-1-yl 4-((1-methyl-3-phenyl-1H-pyrazol-5-yl)methyl)piperazine-1-carboxylate] | – | – | – | 100 to 1000 | > 10000 | 100 to 1000 | –
Cc1nc(-c2ccccc2)oc1CN1CCN(C(=O)ON2C(=O)CCC2=O)CC1 [Example 143, 2,5-Dioxopyrrolidin-1-yl 4-((4-methyl-2-phenyloxazol-5-yl)methyl)piperazine-1-carboxylate] | – | – | – | 100 to 1000 | > 10000 | 1000 to 10000 | –
Cc1nc2ccc(Cl)cn2c1CN1CCN(C(=O)ON2C(=O)CCC2=O)CC1 [Example 144] | – | – | – | 1000 to 10000 | > 10000 | 100 to 1000 | –
O=C(ON1C(=O)CCC1=O)N1CCN(Cc2cnc3ccc(Cl)cn23)CC1 [Example 145, 2,5-Dioxopyrrolidin-1-yl 4-((6-chloroimidazo[1,2-a]pyridin-3-yl)methyl)piperazine-1-carboxylate] | – | – | – | 1000 to 10000 | > 10000 | 1000 to 10000 | –
Cc1nc(N2CCCCC2)sc1CN1CCN(C(=O)ON2C(=O)CCC2=O)CC1 [Example 148, 2,5-Dioxopyrrolidin-1-yl 4-((4-methyl-2-(piperidin-1-yl)thiazol-5-yl)methyl)piperazine-1-carboxylate] | – | – | – | 1000 to 10000 | > 10000 | 1000 to 10000 | –
Cn1cc(CN2CCN(C(=O)ON3C(=O)CCC3=O)CC2)c(-c2ccccc2)n1 [Example 149, 2,5-Dioxopyrrolidin-1-yl 4-((1-methyl-3-phenyl-1H-pyrazol-4-yl)methyl)piperazine-1-carboxylate] | – | – | – | 1000 to 10000 | > 10000 | 1000 to 10000 | –
O=C(ON1C(=O)CCC1=O)N1CCN(C(c2cocn2)c2cocn2)CC1 [Example 152, 2,5-Dioxopyrrolidin-1-yl 4-(bis(oxazol-4-yl)methyl)piperazine-1-carboxylate] | – | – | – | 1000 to 10000 | 1000 to 10000 | 1000 to 10000 | –
Cc1cc(Cl)ccc1C(c1ccc(Cl)cc1C)N1CCN(C(=O)ON2C(=O)CCC2=O)CC1 [Example 153, 2,5-Dioxopyrrolidin-1-yl 4-(bis(4-chloro-2-methylphenyl)methyl)piperazine-1-carboxylate] | – | – | – | 100 to 1000 | > 10000 | 1000 to 10000 | –
Cc1cc(-c2ccccc2)ccc1CN1CCN(C(=O)ON2C(=O)CCC2=O)CC1 [Example 165, 2,5-Dioxopyrrolidin-1-yl 4-[(2-methyl-4-phenylphenyl)methyl]piperazine-1-carboxylate] | – | – | – | 100 to 1000 | 1000 to 10000 | 100 to 1000 | –
CC(C)c1cc(-c2ccccc2)ccc1CN1CCN(C(=O)ON2C(=O)CCC2=O)CC1 [Example 188, 2,5-Dioxopyrrolidin-1-yl 4-{[4-phenyl-2-(propan-2-yl)phenyl]methyl}piperazine-1-carboxylate] | – | – | – | 100 to 1000 | > 10000 | 1000 to 10000 | –
CN(C)C(=O)c1cc(-c2ccccc2)ccc1CN1CCN(C(=O)ON2C(=O)CCC2=O)CC1 [Example 189, 2,5-Dioxopyrrolidin-1-yl 4-{[2-(dimethylcarbamoyl)-4-phenylphenyl]methyl}piperazine-1-carboxylate] | – | – | – | 100 to 1000 | > 10000 | 1000 to 10000 | –
O=C(ON1C(=O)CCC1=O)N1CCN(Cc2ccc(-c3ccccc3)cc2C(=O)N2CCCC2)CC1 [Example 191, 2,5-Dioxopyrrolidin-1-yl 4-{[4-phenyl-2-(pyrrolidine-1-carbonyl)phenyl]methyl}piperazine-1-carboxylate] | – | – | – | 100 to 1000 | > 10000 | 1000 to 10000 | –
